According to patent US7709507B2 (Allergan, Inc., priority 2006, dated 2010):

Columns and labels:
Assay type in all cases: cell-based
alpha2C receptor = biological target: T1, alpha2C receptor (Homo sapiens, UniProt P18825); test: Receptor Selection and Amplification Technology (RSAT) assay, Alpha 2C; conditions: RSAT, transfected NIH-3T3 cells with Gq/i5; not active = at concentrations less than 10 micromolar
T1 construct: expressed in transfected cells; host or cells: NIH-3T3 cells
T1 sequence (P18825 1-462): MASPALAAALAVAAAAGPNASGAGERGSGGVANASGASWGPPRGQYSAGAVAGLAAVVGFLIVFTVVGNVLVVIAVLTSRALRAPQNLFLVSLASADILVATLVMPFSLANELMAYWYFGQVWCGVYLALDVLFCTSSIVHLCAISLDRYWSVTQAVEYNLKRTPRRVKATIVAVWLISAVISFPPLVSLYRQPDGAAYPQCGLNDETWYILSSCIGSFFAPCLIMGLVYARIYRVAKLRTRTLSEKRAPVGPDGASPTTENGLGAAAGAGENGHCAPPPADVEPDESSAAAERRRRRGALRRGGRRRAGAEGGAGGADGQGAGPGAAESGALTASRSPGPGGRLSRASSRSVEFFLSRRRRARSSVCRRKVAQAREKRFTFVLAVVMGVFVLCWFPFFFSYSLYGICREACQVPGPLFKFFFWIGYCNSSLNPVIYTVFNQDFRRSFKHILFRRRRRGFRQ
Method: (§1) Receptor Selection and Amplification Technology (RSAT) Assay
(§2) The RSAT assay measures a receptor-mediated loss of contact inhibition that results in selective proliferation of receptor-containing cells in a mixed population of confluent cells. The increase in cell number is assessed with an appropriate transfected marker gene such as β-galactosidase, the activity of which can be easily measured in a 96-well format. Receptors that activate the G protein, Gq, elicit this response. Alpha2 receptors, which normally couple to Gi, activate the RSAT response when coexpressed with a hybrid Gq protein that has a Gi receptor recognition domain, called Gq/i5.
(§3) NIH-3T3 cells are plated at a density of 2×10^6 cells in 15 cm dishes and maintained in Dulbecco's modified Eagle's medium supplemented with 10% calf serum. One day later, cells are cotransfected by calcium phosphate precipitation with mammalian expression plasmids encoding p-SV-β-galactosidase (5-10 μg), receptor (1-2 μg) and G protein (1-2 μg). 40 μg salmon sperm DNA may also be included in the transfection mixture. […] Cells are thawed and 100 μl added to 100 μl aliquots of various concentrations of drugs in triplicate in 96-well dishes. Incubations continue 72-96 hr at 37° C. After washing with phosphate-buffered saline, β-galactosidase enzyme activity is determined by adding 200 μl of the chromogenic substrate (consisting of 3.5 mM o-nitrophenyl-β-D-galactopyranoside and 0.5% nonidet P-40 in phosphate buffered saline), incubating overnight at 30° C. and measuring optical density at 420 nm. The absorbance is a measure of enzyme activity, which depends on cell number and reflects a receptor-mediated cell proliferation. The efficacy or intrinsic activity is calculated as a ratio of the maximal effect of the drug to the maximal effect of a standard full agonist for each receptor subtype. Brimonidine, also called UK14304, the chemical structure of which is shown below, is used as the standard agonist for the alpha2A, alpha2B and alpha2C receptors. The EC50 is the concentration at which the drug effect is half of its maximal effect.
(§4) EC50 values are nanomolar. NA stands for “not active” at concentrations less than 10 micromolar. IA stands for “intrinsic activity.”

alpha2B receptor = biological target: T2, alpha2B receptor (Homo sapiens, UniProt P18089); test: Receptor Selection and Amplification Technology (RSAT) assay, Alpha 2B; conditions: for EC50: RSAT, transfected NIH-3T3 cells with Gq/i5, not active = at concentrations less than 10 micromolar, read-out: Alpha 2B EC50; for Alpha 2B IA (intrinsic activity): ratio of maximal effect to that of standard full agonist brimonidine (UK14304)
T2 construct: expressed in transfected cells; host or cells: NIH-3T3 cells
T2 sequence (P18089 1-450): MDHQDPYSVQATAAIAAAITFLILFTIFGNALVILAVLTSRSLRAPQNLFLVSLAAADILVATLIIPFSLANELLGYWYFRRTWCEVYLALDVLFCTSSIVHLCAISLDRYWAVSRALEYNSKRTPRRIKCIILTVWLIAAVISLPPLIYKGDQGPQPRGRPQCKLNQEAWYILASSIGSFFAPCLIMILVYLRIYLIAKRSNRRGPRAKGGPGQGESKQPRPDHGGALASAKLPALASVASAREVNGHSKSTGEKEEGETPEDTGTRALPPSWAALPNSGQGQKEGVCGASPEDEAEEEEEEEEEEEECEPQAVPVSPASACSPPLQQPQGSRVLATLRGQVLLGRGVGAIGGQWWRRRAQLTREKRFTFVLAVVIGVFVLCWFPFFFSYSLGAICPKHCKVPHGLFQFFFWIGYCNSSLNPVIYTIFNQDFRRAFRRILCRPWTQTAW
Method: as §1, §2
NIH-3T3 cells are plated at a density of 2×10^6 cells in 15 cm dishes and maintained in Dulbecco's modified Eagle's medium supplemented with 10% calf serum. One day later, cells are cotransfected by calcium phosphate precipitation with mammalian expression plasmids encoding p-SV-β-galactosidase (5-10 μg), receptor (1-2 μg) and G protein (1-2 μg). 40 μg salmon sperm DNA may also be included in the transfection mixture. Fresh media is added on the following day and 1-2 days later, cells are harvested and frozen in 50 assay aliquots. Cells are thawed and 100 μl added to 100 μl aliquots of various concentrations of drugs in triplicate in 96-well dishes. Incubations continue 72-96 hr at 37° C. After washing with phosphate-buffered saline, β-galactosidase enzyme activity is determined by adding 200 μl of the chromogenic substrate (consisting of 3.5 mM o-nitrophenyl-β-D-galactopyranoside and 0.5% nonidet P-40 in phosphate buffered saline), incubating overnight at 30° C. and measuring optical density at 420 nm. The absorbance is a measure of enzyme activity, which depends on cell number and reflects a receptor-mediated cell proliferation. The efficacy or intrinsic activity is calculated as a ratio of the maximal effect of the drug to the maximal effect of a standard full agonist for each receptor subtype. Brimonidine, also called UK14304, the chemical structure of which is shown below, is used as the standard agonist for the alpha2A, alpha2B and alpha2C receptors. The EC50 is the concentration at which the drug effect is half of its maximal effect.
The results of the RSAT assay with several exemplary compounds of the invention are disclosed in Table 1 above together with the chemical formulas of these exemplary compounds. EC50 values are nanomolar. NA stands for “not active” at concentrations less than 10 micromolar. IA stands for “intrinsic activity.”

alpha2A receptor = biological target: T3, alpha2A receptor (Homo sapiens, UniProt P08913); test: Receptor Selection and Amplification Technology (RSAT) assay, Alpha 2A; conditions: RSAT, transfected NIH-3T3 cells with Gq/i5; not active = at concentrations less than 10 micromolar
T3 construct: expressed in transfected cells; host or cells: NIH-3T3 cells
T3 sequence (P08913 1-465): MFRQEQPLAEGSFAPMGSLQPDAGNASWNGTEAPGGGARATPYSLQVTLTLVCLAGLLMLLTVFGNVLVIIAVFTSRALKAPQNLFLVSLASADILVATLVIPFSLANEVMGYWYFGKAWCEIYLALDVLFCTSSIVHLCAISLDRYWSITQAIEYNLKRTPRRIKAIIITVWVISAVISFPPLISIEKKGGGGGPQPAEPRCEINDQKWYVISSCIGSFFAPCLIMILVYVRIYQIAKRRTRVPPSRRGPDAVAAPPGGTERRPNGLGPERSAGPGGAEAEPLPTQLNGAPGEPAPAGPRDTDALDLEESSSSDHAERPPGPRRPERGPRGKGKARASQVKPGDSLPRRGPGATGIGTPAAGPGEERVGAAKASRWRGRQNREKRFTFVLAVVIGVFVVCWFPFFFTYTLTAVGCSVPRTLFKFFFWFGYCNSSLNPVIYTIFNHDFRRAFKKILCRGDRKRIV
Method: as §1, §2, §3, §4

Alpha 2C EC50 (alpha2C receptor) | EC50 (alpha2B receptor) [nM] | Alpha 2B IA (intrinsic activity) (alpha2B receptor) | Alpha 2A EC50 (alpha2A receptor) | Compound
not active | 611 | 1.02 | not active | O=C(NCCF)NC(Cc1cc(F)ccc1F)c1cccnc1 (stereo not drawn) [1-[2-(2,5-difluoro-phenyl)-1-pyridin-3-yl-ethyl]-3-(2-fluoro-ethyl)-urea]
not active | 3620 | 0.44 | not active | O=C(NCCF)NC(Cc1ccc(F)c(F)c1)c1ccncc1 (stereo not drawn) [1-[2-(3,4-difluoro-phenyl)-1-pyridin-4-yl-ethyl]-3-(2-fluoro-ethyl)-urea]
not active | 29.8 | 0.91 | not active | Cc1cccc(C(Cc2ccccc2)NC(=O)NCCF)c1 (stereo not drawn) [drawing 72, 1-(2-fluoroethyl)-3-[1-(3-methylphenyl)-2-phenylethyl]urea]

Continued, molecule first:

Compound | Alpha 2C EC50 (alpha2C receptor) | EC50 (alpha2B receptor) [nM] | Alpha 2B IA (intrinsic activity) (alpha2B receptor) | Alpha 2A EC50 (alpha2A receptor)
Cc1cccc(C(Cc2cccc(F)c2F)NC(=O)NCCF)c1 (stereo not drawn) [1-[2-(2,3-difluoro-phenyl)-1-m-tolyl-ethyl]-3-(2-fluoro-ethyl)-urea] | not active | 20.5 | 1.02 | not active
Cc1cccc(C(Cc2cc(F)ccc2F)NC(=O)NCCF)c1 (stereo not drawn) [1-[2-(2,5-difluoro-phenyl)-1-m-tolyl-ethyl]-3-(2-fluoro-ethyl)-urea] | not active | 21.3 | 1.02 | not active
O=C(NCCF)NC(Cc1cccc(F)c1)c1ccccc1 (stereo not drawn) [N-(2-fluoroethyl)-N′-[2-(3-fluorophenyl)-1-phenylethyl]urea] | not active | 26 | 0.95 | not active
